Values after ≈ are worked out from the molar mass of the structure shown.
How the values were obtained:
[1] = test system: S. pneum 1294 (mef); assay: microbe, parasite or virus in culture; type: cell-based, streptococcus pneumoniae; settings: agar dilution, 18-24 hours, 35±2° C., 5% CO2; mef: efflux pump mef genes
Method: (§1) Drug dilutions and the agar plates are prepared by NCCLS method. Inoculum is prepared by direct colony suspensions in normal saline and adjusted to 0.5 McFarland turbidity and subsequently diluted as per NCCLS guidelines in order to obtain 10^4 CFU/spot. CFU/ml of a few randomly selected cultures is performed. The cultures are replicated on the agar plates using replicator (Denley's multipoint). The plates are incubated at 35±2° C. and in 5% CO2 atmosphere (for respiratory and Haemophilus strains) for 18-24 hours at 35±2° C. Minimum inhibitory concentrations (MIC) are determined after 18-24 hours. Q. C. strains are also included in each run of the study. The cation content of Mueller Hinton agar is checked by performing disk […] of 10 μg gentamicin disk against Pseudomonas aeroginosa ATCC 27853. The zone of inhibition should fall between 16-21 mm. The concentration of drug at which there is complete disappearance of growth spot or formation of less than 10 colonies per spot is considered as MIC.

[2] = test system: S. pneum AB 14 (erm); assay: microbe, parasite or virus in culture; type: cell-based, streptococcus pneumoniae; settings: for Minimum Inhibitory Concentrations, S. pneum AB 14 (erm): agar dilution, 18-24 hours, 35±2° C., 5% CO2, erm: ribosomal modification (mutation) erm genes
Method: as §1

[3] = test system: S. pneum 1275 (erm); assay: microbe, parasite or virus in culture; type: cell-based, streptococcus pneumoniae; settings: for Minimum Inhibitory Concentrations, S. pneum 1275 (erm): agar dilution, 18-24 hours, 35±2° C., 5% CO2, erm: ribosomal modification (mutation) erm genes
Method: as §1

[4] = test system: S. pneum 1256 (erm); assay: microbe, parasite or virus in culture; type: cell-based, streptococcus pneumoniae; settings: agar dilution, 18-24 hours, 35±2° C., 5% CO2; erm: ribosomal modification (mutation) erm genes
Method: as §1

[5] = test system: S. pneum AB 29 (erm); assay: microbe, parasite or virus in culture; type: cell-based, streptococcus pneumoniae; settings: agar dilution, 18-24 hours, 35±2° C., 5% CO2; erm: ribosomal modification (mutation) erm genes
Method: as §1

[6] = test system: S. pneum AB 30 (erm); assay: microbe, parasite or virus in culture; type: cell-based, streptococcus pneumoniae; settings: agar dilution, 18-24 hours, 35±2° C., 5% CO2; erm: ribosomal modification (mutation) erm genes
Method: as §1

[7] = test system: MoraXella MI; assay: MIC, agar incorporation method (NCCLS agar dilution method); type: cell-based; settings: 18-24 hours, 35±2° C.
Method: as §1

[8] = test system: S. pneum ATCC 6303; assay: as above; type: cell-based, streptococcus pneumoniae; settings: 18-24 hours, 35±2° C., 5% CO2
Method: as §1

[9] = test system: S. pneum CS 1687 (mef); assay: as above; type: cell-based, streptococcus pneumoniae; settings: 18-24 hours, 35±2° C., 5% CO2, mef: efflux pump mef genes
Method: as §1

[10] = test system: S. pneum ATCC 49619; assay: as above; type: cell-based, streptococcus pneumoniae; settings: 35±2° C.; for Minimum Inhibitory Concentrations, S. pneum ATCC 49619: 18-24 hours, 5% CO2
Method: as §1

[11] = test system: S. pneum 1251 (mef); assay: as above; type: cell-based, streptococcus pneumoniae; settings: 18-24 hours, 35±2° C., 5% CO2, mef: efflux pump mef genes
Method: as §1

[12] = test system: S. pneum AB 34 (mef); assay: as above; type: cell-based, streptococcus pneumoniae; settings: 18-24 hours, 35±2° C., 5% CO2, mef: efflux pump mef genes
Method: as §1

[13] = test system: H. inflenza ATCC 49247; assay: as above; type: cell-based, Haemophilus influenzae; settings: agar dilution, 18-24 hours, 35±2° C., 5% CO2
Method: Minimum inhibitory concentrations (μg/ml) were obtained for representative compounds of the invention, which are given in Table 2.
as §1

Row | Compound | Minimum Inhibitory Concentrations, S. pneum 1294 (mef) [1] [µg/mL] | Minimum Inhibitory Concentrations, S. pneum AB 14 (erm) [2] [µg/mL] | Minimum Inhibitory Concentrations, S. pneum 1275 (erm) [3] [µg/mL] | Minimum Inhibitory Concentrations, S. pneum 1256 (erm) [4] [µg/mL] | Minimum Inhibitory Concentrations, S. pneum AB 29 (erm) [5] [µg/mL] | Minimum Inhibitory Concentrations, S. pneum AB 30 (erm) [6] [µg/mL] | Minimum Inhibitory Concentrations, MoraXella MI [7] [µg/mL] | Minimum Inhibitory Concentrations, S. pneum ATCC 6303 [8] [µg/mL] | Minimum Inhibitory Concentrations, S. pneum CS 1687 (mef) [9] [µg/mL] | Minimum Inhibitory Concentrations, S. pneum ATCC 49619 [10] [µg/mL] | Minimum Inhibitory Concentrations, S. pneum 1251 (mef) [11] [µg/mL] | Minimum Inhibitory Concentrations, S. pneum AB 34 (mef) [12] [µg/mL] | Minimum Inhibitory Concentrations, H. inflenza ATCC 49247 [13] [µg/mL] | MIC ([2]; Streptococcus pneumoniae, read-out: Minimum Inhibitory Concentrations, S. pneum AB 14 (erm)) [µg/mL] | MIC ([3]; Streptococcus pneumoniae, read-out: Minimum Inhibitory Concentrations, S. pneum 1275 (erm)) [µg/mL] | MIC ([7]; Moraxella, read-out: Minimum Inhibitory Concentrations, MoraXella MI) [µg/mL] | MIC ([10]; Streptococcus pneumoniae, ATCC49619, 18-24 hours, 5% CO2, read-out: Minimum Inhibitory Concentrations, S. pneum ATCC 49619) [µg/mL]
1 | 3-O-(3-Fluorophenyl)acetyl-5-O-(3′-N-desmethyl-3′-N-allyl)desosaminyl-6-O-methyl erythronolide A [Compound No. 19] | 4 | >16 | >16 | >16 | 2 | >16 | 16 | 2 | 2 | 2 | 2 | 16 | – | – | – | – | –
2 | 3-O-(3-Fluorophenyl)acetyl-5-O-(3′-N-desmethyl-3′-N-propargyl)desosaminyl-6-O-methyl erythronolide A [Compound No. 22] | 4 | >16 | >16 | >16 | – | >16 | 4 | 0.5 | 1 | 0.5 | 4 | >16 | >16 | – | – | – | –
3 | 3-O-(3-Fluorophenyl)acetyl-5-O-[3′-N-desmethyl-3′-N-cyclopropyl)desosaminyl-6-O-methyl erythronolide A [Compound No. 16] | 1 | >16 | >16 | 16 | – | >16 | >16 | 1 | 4 | 4 | 8 | >16 | >16 | – | – | – | –
4 | 3-O-(4-Fluorophenyl)acetyl-5-O-(3′-N-desmethyl-3′-N-allyl)desosaminyl-6-O-methyl erythronolide A [Compound No. 20] | 1 | >16 | >16 | 16 | – | >16 | 16 | 0.5 | 1 | 0.25 | 1 | >16 | >16 | – | – | – | –
5 | CCC[C@@H]1C[C@@H](C(=O)N[C@@H]([C@H]2O[C@H](SC)[C@H](O)[C@@H](O)[C@H]2O)[C@H](C)Cl)N(C)C1 [Cl, Clindamycin, reference compound] | – | – | – | – | – | – | – | – | – | – | – | – | – | > 16 | > 16 | 2 (≈ 4.71 µM) | 0.015 (≈ 0.0353 µM)
6 | CCC1OC(=O)C(C)C(OC(=O)Cc2ccccc2F)C(C)C(OC2OC(C)CC(N(C)Cc3ccc(F)cc3)C2O)C(C)(OC)CC(C)C(=O)C(C)C(O)C1(C)O (stereo not shown) [Compound No. 5, 3-O-(2-Fluorophenyl)acetyl-5-O-[3′-N-desmethyl-3′-N-(4-fluoro)benzyl]desosaminyl-6-O-methyl erythronolide A] | 2 | >8 | >16 | >8 | – | >8 | >8 | 2 | 2 | 2 | 2 | >8 | >128 | – | – | – | –
7 | CCC1OC(=O)C(C)C(OC(=O)Cc2ccc(F)cc2)C(C)C(OC2OC(C)CC(N(C)Cc3ccc([N+](=O)[O-])cc3)C2O)C(C)(OC)CC(C)C(=O)C(C)C(O)C1(C)O (stereo not shown) [Compound No. 24, 3-O-(4-Fluorophenyl)acetyl-5-O-(3′-N-desmethyl-3′-N-(4-nitro)benzyl)desosaminyl-6-O-methyl erythronolide A] | 2 | 8 | >16 | >16 | >16 | >16 | 2 | 0.5 | 0.5 | 0.5 | 1 | >16 | – | – | – | – | –
8 | CCC1OC(=O)C(C)C(OC(=O)Cc2ccc3ccccc3c2)C(C)C(OC2OC(C)CC(N(C)Cc3ccccc3)C2O)C(C)(OC)CC(C)C(=O)C(C)C(O)C1(C)O (stereo not shown) [Compound No. 73, 3-O-(2-Naphthyl)acetyl-5-O-(3′-N-desmethyl-3′-N-benzyl) desosaminyl-6-O-methyl erythronolide A] | >16 | >16 | >16 | >16 | >16 | >16 | 16 | 1 | 2 | 2 | 2 | >16 | – | – | – | – | –

— patent US20070270484A1, “3'-N-Substituted-3-O-Substituted Erythronolide a Derivatives” (priority 2003, published 2007)
